# Measurements as given in patent US10617681B2, “1-arylalkyl-4-acylaminopiperidine compounds” (ARIZONA BOARD OF REGENTS ON BEHALF OF THE UNIVERSITY OF …, priority 2014, dated 2020).
# Tests used:
# MDCK = MDCK permeability assay
# α2B(h) [1] = target: T1, α2B(h) (Homo sapiens, UniProt P18089); assay: Cellular functional assay, agonist effect, α2B; format: cell-based
# T1 sequence (P18089 1-450): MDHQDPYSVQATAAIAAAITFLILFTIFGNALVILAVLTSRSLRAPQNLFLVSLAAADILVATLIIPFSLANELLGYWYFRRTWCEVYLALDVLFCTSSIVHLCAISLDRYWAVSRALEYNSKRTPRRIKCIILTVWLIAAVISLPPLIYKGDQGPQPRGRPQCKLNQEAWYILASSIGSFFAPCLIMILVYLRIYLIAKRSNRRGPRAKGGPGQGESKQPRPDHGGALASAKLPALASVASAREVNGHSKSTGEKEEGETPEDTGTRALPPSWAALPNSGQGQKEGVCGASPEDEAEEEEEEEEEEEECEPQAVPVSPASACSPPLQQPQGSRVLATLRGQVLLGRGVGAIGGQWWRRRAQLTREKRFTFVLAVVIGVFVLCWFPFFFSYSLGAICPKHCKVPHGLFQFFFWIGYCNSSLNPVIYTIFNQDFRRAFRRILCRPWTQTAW
# κ (KOP) [2] = target: T2, κ (KOP) (Rattus norvegicus, UniProt P34975); assay: Cellular functional assay, agonist effect, κ (KOP); format: cell-based; conditions: agonist mode
# μ (MOP) [3] = target: T3, μ (MOP) (Homo sapiens, UniProt P35372); assay: Cellular functional assay, agonist effect, μ (MOP); format: cell-based; conditions: agonist mode
# α2B(h) [4] = target: T1, α2B(h); assay: Cellular functional assay, antagonist effect, α2B; format: cell-based; conditions: antagonist mode
# κ (KOP) [5] = target: T2, κ (KOP); assay: Cellular functional assay, antagonist effect, κ (KOP); format: cell-based
# μ (MOP) [6] = target: T3, μ (MOP); assay: Cellular functional assay, antagonist effect, μ (MOP); format: cell-based; conditions: antagonist mode
# hERG = hERG (Homo sapiens, UniProt Q12809); assay: hERG inhibition; format: cell-based
# Procedure: Compound HCV-3 also was tested for hERG inhibition. Over the concentration range tested (up to 25 micromolar) no dose-response was obtained. […] The control compounds behaved as expected in the assay.
# TA98 = assay: AMES testing, strain TA98; format: cell-based; conditions: TA98, up to 1 mg/mL, absence and presence of S9 metabolic activation
# Procedure: (§1) Compound HCV-3 was negative for genotoxicity against both strains used in this assay (TA98 and TA 100) up to a maximum tested concentration of 1 mg/mL, in both the absence and presence of S9 metabolic activation. The assay controls behaved as expected.
# TA 100 = assay: AMES testing, strain TA 100; format: cell-based; conditions: TA 100, up to 1 mg/mL, absence and presence of S9 metabolic activation
# Procedure: as §1
# [7] = In vitro metabolic disposition in human microsomes; format: in vitro ADME; conditions: human pooled liver microsomes, 0-45 minutes
# Procedure: (§2) Compound HCV-3 also was subjected to in vitro metabolic disposition in mouse, rat, monkey and human microsomes. The test compound was incubated with pooled liver microsomes, since […] stability in liver microsomes can be predictive of drug stability in vivo. Aliquots were taken at 0, 5, 15, 30 and 45 minutes and quenched immediately. The samples were extracted and analyzed by LC-MS/MS.
# [8] = In vitro metabolic disposition in monkey microsomes; format: in vitro ADME; conditions: monkey pooled liver microsomes, 0-45 minutes
# Procedure: as §2
# [9] = In vitro metabolic disposition in mouse microsomes; format: in vitro ADME; conditions: mouse pooled liver microsomes, 0-45 minutes
# Procedure: as §2
# [10] = In vitro metabolic disposition in rat microsomes; format: in vitro ADME; conditions: rat pooled liver microsomes, 0-45 minutes
# Procedure: as §2
# CYP2D6 = CYP2D6 (Homo sapiens, UniProt P10635); assay: CYP inhibition, CYP2D6
# CYP2B6 = target: T4, CYP2B6 (Homo sapiens, UniProt P20813); assay: CYP inhibition, CYP2B6
# T4 sequence (P20813 1-491): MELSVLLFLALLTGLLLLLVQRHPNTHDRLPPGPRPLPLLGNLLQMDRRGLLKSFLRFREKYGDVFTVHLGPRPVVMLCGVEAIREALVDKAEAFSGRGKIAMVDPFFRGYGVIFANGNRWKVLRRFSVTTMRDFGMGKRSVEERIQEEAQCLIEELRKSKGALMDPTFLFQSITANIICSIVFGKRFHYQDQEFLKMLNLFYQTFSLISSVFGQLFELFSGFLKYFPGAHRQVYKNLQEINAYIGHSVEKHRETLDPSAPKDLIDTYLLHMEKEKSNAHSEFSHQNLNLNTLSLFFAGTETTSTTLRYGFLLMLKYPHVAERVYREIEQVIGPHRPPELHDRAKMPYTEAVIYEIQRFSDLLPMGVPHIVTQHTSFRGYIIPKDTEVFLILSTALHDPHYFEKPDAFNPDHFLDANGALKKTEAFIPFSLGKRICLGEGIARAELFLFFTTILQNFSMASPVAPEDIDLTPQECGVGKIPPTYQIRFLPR
# CYP2C9 = CYP2C9 (Homo sapiens, UniProt P11712); assay: CYP inhibition, CYP2C9
# CYP3A4 = CYP3A4 (Homo sapiens, UniProt P08684); assay: CYP inhibition, CYP3A4; conditions: with either substrate
# CYP2C8 = target: T5, CYP2C8 (Homo sapiens, UniProt P10632); assay: CYP inhibition, CYP2C8
# T5 sequence (P10632 1-490): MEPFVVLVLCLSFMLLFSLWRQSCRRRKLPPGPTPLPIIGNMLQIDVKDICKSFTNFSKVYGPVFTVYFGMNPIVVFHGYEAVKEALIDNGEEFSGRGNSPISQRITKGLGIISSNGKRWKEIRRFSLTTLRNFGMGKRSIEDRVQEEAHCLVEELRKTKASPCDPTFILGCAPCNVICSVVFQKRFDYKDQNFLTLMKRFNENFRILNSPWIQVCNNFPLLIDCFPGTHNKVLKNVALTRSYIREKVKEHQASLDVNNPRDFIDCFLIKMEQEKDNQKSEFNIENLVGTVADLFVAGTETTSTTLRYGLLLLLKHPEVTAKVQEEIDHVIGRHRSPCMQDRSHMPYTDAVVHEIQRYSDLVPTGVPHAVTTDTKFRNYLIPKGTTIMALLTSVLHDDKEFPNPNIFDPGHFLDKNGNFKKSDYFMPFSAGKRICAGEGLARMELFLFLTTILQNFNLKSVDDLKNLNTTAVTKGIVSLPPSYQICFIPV
# CYP1A2 = target: T6, CYP1A2 (Homo sapiens, UniProt P05177); assay: CYP inhibition, CYP1A2
# T6 sequence (P05177 1-516): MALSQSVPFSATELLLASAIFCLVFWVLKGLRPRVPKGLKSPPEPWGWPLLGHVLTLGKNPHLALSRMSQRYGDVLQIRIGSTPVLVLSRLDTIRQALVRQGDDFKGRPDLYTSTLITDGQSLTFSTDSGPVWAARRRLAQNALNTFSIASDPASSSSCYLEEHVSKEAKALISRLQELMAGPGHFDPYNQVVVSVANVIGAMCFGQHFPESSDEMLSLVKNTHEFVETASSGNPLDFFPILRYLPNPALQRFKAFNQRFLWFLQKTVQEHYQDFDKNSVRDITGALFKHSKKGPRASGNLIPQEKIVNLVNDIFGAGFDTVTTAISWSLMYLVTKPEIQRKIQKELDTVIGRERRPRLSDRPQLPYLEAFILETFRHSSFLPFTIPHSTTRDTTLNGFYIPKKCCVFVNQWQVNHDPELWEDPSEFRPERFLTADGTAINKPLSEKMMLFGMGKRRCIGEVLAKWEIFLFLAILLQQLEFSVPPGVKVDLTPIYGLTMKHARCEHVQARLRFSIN
# CYP2C19 = CYP2C19 (Homo sapiens, UniProt P33261); assay: CYP inhibition, CYP2C19
# P-gp = assay: MDCK permeability assay; conditions: dog, MDCK
# T3 sequence (P35372 whole entry): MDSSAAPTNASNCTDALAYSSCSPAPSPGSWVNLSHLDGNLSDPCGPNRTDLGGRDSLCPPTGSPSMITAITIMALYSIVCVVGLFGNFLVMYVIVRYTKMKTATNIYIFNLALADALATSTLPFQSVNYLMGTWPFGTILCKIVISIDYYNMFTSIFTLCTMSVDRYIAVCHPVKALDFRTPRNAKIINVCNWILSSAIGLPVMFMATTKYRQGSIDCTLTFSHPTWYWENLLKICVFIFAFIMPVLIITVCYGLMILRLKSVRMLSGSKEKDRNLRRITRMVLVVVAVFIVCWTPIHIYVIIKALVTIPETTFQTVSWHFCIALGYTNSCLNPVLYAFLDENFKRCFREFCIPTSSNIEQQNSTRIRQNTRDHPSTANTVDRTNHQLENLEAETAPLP
# Chain of hERG (Q12809 whole entry): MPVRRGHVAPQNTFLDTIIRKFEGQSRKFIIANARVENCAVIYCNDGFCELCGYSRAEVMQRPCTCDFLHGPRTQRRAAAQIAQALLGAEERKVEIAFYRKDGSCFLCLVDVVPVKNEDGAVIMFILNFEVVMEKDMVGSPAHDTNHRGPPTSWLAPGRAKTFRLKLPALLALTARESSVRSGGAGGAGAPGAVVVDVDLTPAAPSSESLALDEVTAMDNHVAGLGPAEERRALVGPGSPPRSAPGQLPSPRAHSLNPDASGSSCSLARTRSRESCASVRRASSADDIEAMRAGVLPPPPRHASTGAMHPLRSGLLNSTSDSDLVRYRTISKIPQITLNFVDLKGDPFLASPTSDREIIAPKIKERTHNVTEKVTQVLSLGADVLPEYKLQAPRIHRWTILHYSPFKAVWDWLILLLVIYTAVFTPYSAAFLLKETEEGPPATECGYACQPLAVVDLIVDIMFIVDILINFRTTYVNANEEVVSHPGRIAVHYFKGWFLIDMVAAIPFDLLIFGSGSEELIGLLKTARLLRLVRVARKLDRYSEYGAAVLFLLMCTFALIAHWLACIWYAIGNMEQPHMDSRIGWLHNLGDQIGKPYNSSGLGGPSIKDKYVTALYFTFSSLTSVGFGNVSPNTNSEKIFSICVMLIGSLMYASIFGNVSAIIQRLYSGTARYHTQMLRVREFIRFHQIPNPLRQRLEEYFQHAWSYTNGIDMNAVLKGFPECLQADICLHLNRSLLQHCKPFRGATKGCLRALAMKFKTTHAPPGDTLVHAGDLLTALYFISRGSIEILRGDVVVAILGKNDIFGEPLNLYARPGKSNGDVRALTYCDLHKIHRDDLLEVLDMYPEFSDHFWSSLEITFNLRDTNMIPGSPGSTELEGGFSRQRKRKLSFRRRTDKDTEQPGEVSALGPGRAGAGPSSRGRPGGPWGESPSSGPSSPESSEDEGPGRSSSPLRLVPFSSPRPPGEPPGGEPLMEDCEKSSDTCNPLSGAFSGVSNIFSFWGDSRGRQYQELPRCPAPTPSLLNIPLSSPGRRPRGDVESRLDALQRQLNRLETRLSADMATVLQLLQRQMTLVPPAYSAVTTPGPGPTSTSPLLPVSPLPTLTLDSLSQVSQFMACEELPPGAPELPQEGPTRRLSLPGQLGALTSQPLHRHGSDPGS
# T2 sequence (P34975 whole entry): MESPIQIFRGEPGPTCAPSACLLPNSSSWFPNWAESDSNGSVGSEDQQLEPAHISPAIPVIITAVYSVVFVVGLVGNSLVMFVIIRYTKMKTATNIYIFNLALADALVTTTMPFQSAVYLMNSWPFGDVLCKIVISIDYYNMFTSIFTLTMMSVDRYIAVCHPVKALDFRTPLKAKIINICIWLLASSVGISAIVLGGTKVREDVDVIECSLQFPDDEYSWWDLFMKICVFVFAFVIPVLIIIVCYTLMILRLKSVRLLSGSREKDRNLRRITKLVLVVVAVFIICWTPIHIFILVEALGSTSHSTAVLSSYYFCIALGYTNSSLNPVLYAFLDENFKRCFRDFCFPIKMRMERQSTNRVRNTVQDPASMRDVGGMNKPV
# Chain of CYP2D6 (P10635 whole entry): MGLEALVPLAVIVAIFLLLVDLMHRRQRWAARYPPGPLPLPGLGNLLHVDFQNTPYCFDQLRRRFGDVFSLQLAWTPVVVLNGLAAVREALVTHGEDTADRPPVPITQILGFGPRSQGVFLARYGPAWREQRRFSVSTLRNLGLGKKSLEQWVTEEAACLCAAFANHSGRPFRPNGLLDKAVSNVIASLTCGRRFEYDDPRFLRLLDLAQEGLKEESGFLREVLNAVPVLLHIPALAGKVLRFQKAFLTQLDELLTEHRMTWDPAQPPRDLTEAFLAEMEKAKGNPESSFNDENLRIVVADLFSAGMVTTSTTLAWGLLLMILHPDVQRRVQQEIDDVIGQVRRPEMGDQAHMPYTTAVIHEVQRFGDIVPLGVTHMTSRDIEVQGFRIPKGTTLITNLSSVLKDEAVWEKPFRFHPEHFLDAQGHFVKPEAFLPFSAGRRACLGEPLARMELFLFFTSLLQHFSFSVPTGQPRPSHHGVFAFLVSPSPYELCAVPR
# Chain of CYP2C19 (P33261 whole entry): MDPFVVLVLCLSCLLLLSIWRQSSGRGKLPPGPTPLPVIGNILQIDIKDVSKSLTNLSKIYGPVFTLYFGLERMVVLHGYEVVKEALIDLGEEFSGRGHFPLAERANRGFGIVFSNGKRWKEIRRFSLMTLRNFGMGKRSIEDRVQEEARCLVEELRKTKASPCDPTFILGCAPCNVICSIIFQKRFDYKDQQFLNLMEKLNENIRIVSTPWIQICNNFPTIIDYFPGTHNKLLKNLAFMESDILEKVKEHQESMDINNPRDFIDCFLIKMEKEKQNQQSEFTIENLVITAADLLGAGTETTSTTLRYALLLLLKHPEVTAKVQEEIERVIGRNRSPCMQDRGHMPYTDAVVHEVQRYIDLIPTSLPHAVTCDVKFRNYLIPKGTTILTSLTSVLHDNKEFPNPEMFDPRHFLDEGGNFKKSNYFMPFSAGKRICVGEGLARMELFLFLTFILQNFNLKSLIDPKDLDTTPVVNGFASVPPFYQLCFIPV
# Chain of CYP2C9 (P11712 whole entry): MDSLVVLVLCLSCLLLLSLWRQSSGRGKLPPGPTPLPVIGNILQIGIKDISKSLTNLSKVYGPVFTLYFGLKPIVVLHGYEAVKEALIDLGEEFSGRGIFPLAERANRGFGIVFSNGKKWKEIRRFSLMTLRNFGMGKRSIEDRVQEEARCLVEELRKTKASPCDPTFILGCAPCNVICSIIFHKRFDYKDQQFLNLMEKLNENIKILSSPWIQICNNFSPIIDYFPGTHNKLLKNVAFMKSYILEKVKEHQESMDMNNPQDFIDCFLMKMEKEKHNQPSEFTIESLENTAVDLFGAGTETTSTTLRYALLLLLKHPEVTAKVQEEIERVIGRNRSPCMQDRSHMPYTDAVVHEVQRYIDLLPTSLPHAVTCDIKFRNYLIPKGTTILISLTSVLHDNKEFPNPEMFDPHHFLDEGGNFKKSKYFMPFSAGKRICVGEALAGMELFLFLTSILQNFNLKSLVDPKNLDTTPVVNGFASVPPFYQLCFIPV
# Chain of CYP3A4 (P08684 whole entry): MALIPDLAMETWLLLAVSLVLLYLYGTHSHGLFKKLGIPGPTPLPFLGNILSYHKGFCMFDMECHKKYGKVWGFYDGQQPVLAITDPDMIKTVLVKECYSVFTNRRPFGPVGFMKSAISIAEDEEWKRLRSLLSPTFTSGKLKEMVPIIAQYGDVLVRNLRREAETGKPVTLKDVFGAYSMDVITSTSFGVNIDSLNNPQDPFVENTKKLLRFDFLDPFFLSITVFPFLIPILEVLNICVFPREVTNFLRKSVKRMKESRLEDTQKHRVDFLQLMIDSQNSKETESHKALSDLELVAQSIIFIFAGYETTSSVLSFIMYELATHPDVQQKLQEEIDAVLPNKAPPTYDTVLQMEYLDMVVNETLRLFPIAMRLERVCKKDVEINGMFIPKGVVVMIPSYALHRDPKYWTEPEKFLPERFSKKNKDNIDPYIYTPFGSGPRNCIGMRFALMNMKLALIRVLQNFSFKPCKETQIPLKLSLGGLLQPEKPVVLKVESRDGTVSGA
smiles,measurement,setting,value
"COc1cc2nc(N3CCN(C(=O)c4ccco4)CC3)nc(N)c2cc1OC [prazosin, reference compound]",efflux (control compound),MDCK; in the absence of Cyclosporin A,showing efflux
same,efflux (control compound),MDCK; in the presence of Cyclosporin A,inhibited
"CCC(=O)NC1CCN(CCc2ccccc2)CC1 [HCV-3, N-(1-phenethylpiperidin-4-yl)propionamide]","% of Control Agonist Response, 1st","α2B(h) [1]; agonist mode, 1.0E−05, first replicate",9.2%
same,"% of Control Agonist Response, Mean","α2B(h) [1]; agonist mode, 1.0E−05, mean",7.1%
same,"% of Control Agonist Response, 2nd","α2B(h) [1]; agonist mode, 1.0E−05, second replicate",5.1%
same,% of Control Agonist Response,"α2B(h) [1]; agonist mode, test concentration 1.0E−05",7.1%
same,"% of Control Agonist Response, 1st","κ (KOP) [2]; 1.0E−05, first replicate",−10.3%
same,"% of Control Agonist Response, Mean","κ (KOP) [2]; 1.0E−05, mean",−4.2%
same,"% of Control Agonist Response, 2nd","κ (KOP) [2]; 1.0E−05, second replicate",1.8%
same,% of Control Agonist Response,κ (KOP) [2]; test concentration 1.0E−05,−4.2%
same,"% of Control Agonist Response, 1st","μ (MOP) [3]; 1.0E−05, first replicate",28.1%
same,"% of Control Agonist Response, Mean","μ (MOP) [3]; 1.0E−05, mean",33.5%
same,"% of Control Agonist Response, 2nd","μ (MOP) [3]; 1.0E−05, second replicate",38.9%
same,% of Control Agonist Response,μ (MOP) [3]; test concentration 1.0E−05,33.5%
same,"Agonist Response (% of Control), 1st","α2B(h) [4]; 1.0E−05, first replicate",116.8 % of Control
same,"Agonist Response (% of Control), Mean","α2B(h) [4]; 1.0E−05, mean",127.8 % of Control
same,"Agonist Response (% of Control), 2nd","α2B(h) [4]; 1.0E−05, second replicate",138.7 % of Control
same,% Inhibition of Control Agonist Response,α2B(h) [4]; test concentration 1.0E−05,−28%
same,"Agonist Response (% of Control), 1st","κ (KOP) [5]; antagonist mode, 1.0E−05, first replicate",112.4 % of Control
same,"Agonist Response (% of Control), Mean","κ (KOP) [5]; antagonist mode, 1.0E−05, mean",94.4 % of Control
same,"Agonist Response (% of Control), 2nd","κ (KOP) [5]; antagonist mode, 1.0E−05, second replicate",76.5 % of Control
same,% Inhibition of Control Agonist Response,"κ (KOP) [5]; antagonist mode, test concentration 1.0E−05",6%
same,"Agonist Response (% of Control), 1st","μ (MOP) [6]; 1.0E−05, first replicate",100.1 % of Control
same,"Agonist Response (% of Control), Mean","μ (MOP) [6]; 1.0E−05, mean",101.0 % of Control
same,"Agonist Response (% of Control), 2nd","μ (MOP) [6]; 1.0E−05, second replicate",101.8 % of Control
same,% Inhibition of Control Agonist Response,μ (MOP) [6]; test concentration 1.0E−05,−1%
same,hERG inhibition category,hERG,weak or no hERG inhibition
same,IC50,hERG; concentration range tested up to 25 micromolar,> 25000 nM
same,inhibition at 25 micromolar,"hERG; human, at the top concentration of 25 micromolar",32.5%
same,genotoxicity,TA98,negative
same,genotoxicity,TA 100,negative
same,clearance,[7],low clearance
same,clearance,[8],low clearance
same,clearance,[9],low clearance
same,clearance,[10],moderate clearance
same,CYP2D6 inhibitor category,CYP2D6,moderate CYP2D6 inhibitor
same,IC50,CYP2D6,4200 nM
same,CYP2B6 inhibition,CYP2B6,No inhibition
same,CYP2C9 inhibition,CYP2C9,No inhibition
same,CYP3A4 inhibition,CYP3A4,No inhibition
same,CYP2C8 inhibition,CYP2C8,No inhibition
same,CYP1A2 inhibition,CYP1A2,No inhibition
same,CYP2C19 inhibitor category,CYP2C19,weak CYP2C19 inhibitor
same,inhibition at 25 micromolar,CYP2C19,36.4%
same,permeability,MDCK; MDCK assay,highly permeable
same,efflux ratio,P-gp,1.48
"Oc1ccc2c3c1O[C@H]1c4[nH]c5c(c4C[C@@]4(O)[C@@H](C2)N(CC2CC2)CC[C@]314)C[C@@]1(O)[C@H]2Cc3ccc(O)c4c3[C@@]1(CCN2CC1CC1)[C@H]5O4 [nor-BNI, reference compound]",Kb,"κ (KOP) [5]; reference antagonist, read-out: Reference Kb Ref",0.072 nM
"Cc1cccc([C@H](C)c2c[nH]cn2)c1C [dexmedetc, reference compound]",EC50,"α2B(h) [1]; reference agonist, read-out: Reference EC50 Ref",13 nM
